Source: patent US12577257B2, “Heterocyclic compounds” (Hoffmann-La Roche Inc., priority 2018, dated 2026)

Molecular target: T1, MAGL (Homo sapiens, UniProt Q99685)
T1 sequence (Q99685 1-303): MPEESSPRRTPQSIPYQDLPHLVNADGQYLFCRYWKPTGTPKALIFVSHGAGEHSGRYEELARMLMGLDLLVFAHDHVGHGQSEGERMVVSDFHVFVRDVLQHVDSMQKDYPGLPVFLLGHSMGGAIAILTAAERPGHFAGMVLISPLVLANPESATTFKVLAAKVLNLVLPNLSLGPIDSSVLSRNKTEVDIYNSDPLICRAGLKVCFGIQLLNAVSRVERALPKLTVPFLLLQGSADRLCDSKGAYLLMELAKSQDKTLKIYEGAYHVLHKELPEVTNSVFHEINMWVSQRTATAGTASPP
Assay: MAGL inhibition, Table 1 values with no assay marker (2-AG or 4-NPA assay not stated)
Type: biochemical
Description: Compounds were profiled for MAGL inhibitory activity by measuring the enzymatic activity of MAGL by following the hydrolysis of 4-nitrophenylacetate resulting in 4-nitrophenol, which absorbs at 405-412 nm (G. G. Muccioli, G. Labar, D. M. Lambert, Chem. Bio. Chem. 2008, 9, 2704-2710). This assay is hereinafter abbreviated “4-NPA assay”.
The 4-NPA assay was carried out in 384 well assay plates (black with clear bottom, non-binding surface treated, Corning Ref. 3655) in a total volume of 40 μL. Compound dilutions were made in 100% DMSO (VWR Chemicals 23500.297) in a polypropylene plate in 3-fold dilution steps to give a final concentration range in the assay from 25 μM to 1.7 nM. 1 μL compound dilutions (100% DMSO) were added to 19 μL MAGL (recombinant wild-type) in assay buffer (50 mM TRIS (GIBCO, 15567-027), 1 mM EDTA (Fluka, 03690-100 ml)). The plate was shaked for 1 min at 2000 rpm (Variomag Teleshake) and then incubated for 15 min at RT. To start the reaction, 20 μL 4-Nitrophenylacetate (Sigma N-8130) in assay buffer with 6% EtOH was added. The final concentrations in the assay were 1 nM MAGL and 300 μM 4-Nitrophenylacetate. After shaking (1 min, 2000 rpm) and 5 min incubation at RT, the absorbance at 405 nm was measured for a first time (Molecular Devices, SpectraMax Paradigm). A second measurement was then done after incubation for 80 min at RT. From the two measurements, the slope was calculated by subtracting the first from the second measurement.
Alternatively, compounds were profiled for MAGL inhibitory activity by determining the enzymatic activity by following the hydrolysis of the natural substrate 2-arachidonoylglycerol resulting in arachidonic acid, which can be followed by mass spectrometry. This assay is hereinafter abbreviated “2-AG assay”.
The 2-AG assay was carried out in 384 well assay plates (PP, Greiner Cat #784201) in a total volume of 20 μL. Compound dilutions were made in 100% DMSO (VWR Chemicals 23500.297) in a polypropylene plate in 3-fold dilution steps to give a final concentration range in the assay from 12.5 μM to […]. 0.25 μL compound dilutions (100% DMSO) were added to 9 μL MAGL in assay buffer (50 mM TRIS (GIBCO, 15567-027), 1 mM EDTA (Fluka, 03690-100 ml), 0.01% (v/v) Tween. After shaking, the plate was incubated for 15 min at RT. To start the reaction, 10 μL 2-arachidonoylglycerol in assay buffer was added. The final concentrations in the assay was […] and 8 μM 2-arachidonoylglycerol. After shaking and 30 min incubation at RT, the reaction was quenched by the addition of 40 μL of acetonitrile containing 4 μM of d8-arachidonic acid. The amount of arachidonic acid was traced by an online SPE system (Agilent Rapidfire) coupled to a triple quadrupole mass spectrometer (Agilent 6460). A C18 SPE cartridge (G9205A) was used in an acetonitrile/water liquid setup. The mass spectrometer was operated in negative electrospray mode following the mass transitions 303.1→259.1 for arachidonic acid and 311.1→267.0 for d8-arachidonic acid. The activity of the compounds was calculated based on the ratio of intensities [arachidonic acid/d8-arachidonic acid].

IC50 [nM] | Structure (SMILES)
14.5 | O=C1CO[C@H]2CCN(C(=O)N3CC4(CC(c5ccc(S(F)(F)(F)(F)F)cc5)C4)C3)C[C@H]2N1 [Example 46, (4aR,8aS)-6-(6-(4-(pentafluoro-l6-sulfaneyl)phenyl)-2-azaspiro[3.3]heptane-2-carbonyl)hexahydro-2H-pyrido[4,3-b][1,4]oxazin-3(4H)-one]
39.8 | O=C1CO[C@H]2CCN(C(=O)N3CC4(CC(c5ccc(N6CCCC6C(F)(F)F)cc5)C4)C3)C[C@H]2N1 (stereo partly drawn) [Example 47, (4aR,8aS)-6-(6-(4-(2-(trifluoromethyl)pyrrolidin-1-yl)phenyl)-2-azaspiro[3.3]heptane-2-carbonyl)hexahydro-2H-pyrido[4,3-b][1,4]oxazin-3(4H)-one]
175 | O=C1CO[C@H]2CCN(C(=O)N3CCC4(C3)CN(c3ccc(C(F)(F)F)cc3)C4)C[C@H]2N1 [Example 57, (4aR,8aS)-6-(2-(4-(trifluoromethyl)phenyl)-2,6-diazaspiro[3.4]octane-6-carbonyl)hexahydro-2H-pyrido[4,3-b][1,4]oxazin-3(4H)-one]
0.05 | O=C1CO[C@H]2CCN(C(=O)N3CC4(CC(Cc5c(F)cccc5C(F)(F)F)C4)C3)C[C@H]2N1 [Example 53, (4aR,8aS)-6-(6-(2-fluoro-6-(trifluoromethyl)benzyl)-2-azaspiro[3.3]heptane-2-carbonyl)hexahydro-2H-pyrido[4,3-b][1,4]oxazin-3(4H)-one]
195 | O=C1CO[C@H]2CCN(C(=O)N3CC4(C3)CN(S(=O)(=O)c3ccc(F)cc3C(F)(F)F)C4)C[C@H]2N1 [Example 66, (4aR,8aS)-6-(6-((4-fluoro-2-(trifluoromethyl)phenyl)sulfonyl)-2,6-diazaspiro[3.3]heptane-2-carbonyl)hexahydro-2H-pyrido[4,3-b][1,4]oxazin-3(4H)-one]
0.5 | O=C1CO[C@H]2CCN(C(=O)N3CC4(CC(Cc5ccccc5O)C4)C3)C[C@H]2N1 [Example 74, (4aR,8aS)-6-(6-(2-hydroxybenzyl)-2-azaspiro[3.3]heptane-2-carbonyl)hexahydro-2H-pyrido[4,3-b][1,4]oxazin-3(4H)-one]
1.46 | O=C1CO[C@H]2CCN(C(=O)N3CC4(CC(COc5ccc(F)cc5Cl)C4)C3)C[C@H]2N1 [Example 54, (4aR,8aS)-6-(6-((2-chloro-4-fluorophenoxy)methyl)-2-azaspiro[3.3]heptane-2-carbonyl)hexahydro-2H-pyrido[4,3-b][1,4]oxazin-3(4H)-one]
0.04 | O=C1CO[C@H]2CCN(C(=O)N3CC4(CC(Cc5ccc(F)cc5Cl)C4)C3)C[C@H]2N1 [Example 50, (4aR,8aS)-6-(6-(2-chloro-4-fluorobenzyl)-2-azaspiro[3.3]heptane-2-carbonyl)hexahydro-2H-pyrido[4,3-b][1,4]oxazin-3(4H)-one]
357 | O=C1CO[C@H]2CCN(C(=O)N3CC4(C3)CN(S(=O)(=O)c3ccc(C(F)(F)F)c(Cl)c3)C4)C[C@H]2N1 [Example 68, (4aR,8aS)-6-(6-((3-chloro-4-(trifluoromethyl)phenyl)sulfonyl)-2,6-diazaspiro[3.3]heptane-2-carbonyl)hexahydro-2H-pyrido[4,3-b][1,4]oxazin-3(4H)-one]
214 | O=C1CO[C@H]2CCN(C(=O)N3CC4(C3)CN(S(=O)(=O)c3ccc(C(F)(F)F)cc3C(F)(F)F)C4)C[C@H]2N1 [Example 69, (4aR,8aS)-6-(6-((2,4-bis(trifluoromethyl)phenyl)sulfonyl)-2,6-diazaspiro[3.3]heptane-2-carbonyl)hexahydro-2H-pyrido[4,3-b][1,4]oxazin-3(4H)-one]
361 | O=C1CO[C@H]2CCN(C(=O)N3CC4(C3)CN(c3cccc(C(F)(F)F)c3)C4)C[C@H]2N1 [Example 56, (4aR,8aS)-6-(6-(3-(trifluoromethyl)phenyl)-2,6-diazaspiro[3.3]heptane-2-carbonyl)hexahydro-2H-pyrido[4,3-b][1,4]oxazin-3(4H)-one]
0.1 | O=C1CO[C@H]2CCN(C(=O)N3CC4(CC(Cc5c(O)cccc5F)C4)C3)C[C@H]2N1 [Example 73, (4aR,8aS)-6-(6-(2-fluoro-6-hydroxybenzyl)-2-azaspiro[3.3]heptane-2-carbonyl)hexahydro-2H-pyrido[4,3-b][1,4]oxazin-3(4H)-one]
2300 | O=C1CO[C@H]2CCN(C(=O)N3CCC4(C3)CN(c3ccc(N5CCCC5=O)cc3)C4)C[C@H]2N1 [Example 61, (4aR,8aS)-6-(2-(4-(2-oxopyrrolidin-1-yl)phenyl)-2,6-diazaspiro[3.4]octane-6-carbonyl)hexahydro-2H-pyrido[4,3-b][1,4]oxazin-3(4H)-one]
4970 | O=C1CO[C@H]2CCN(C(=O)N3CCC4(C3)CN(c3ccnc(F)c3)C4)C[C@H]2N1 [Example 64, (4aR,8aS)-6-(2-(2-fluoropyridin-4-yl)-2,6-diazaspiro[3.4]octane-6-carbonyl)hexahydro-2H-pyrido[4,3-b][1,4]oxazin-3(4H)-one]
185 | O=C1CO[C@H]2CCN(C(=O)N3CC4(C3)CC(OCc3ccc(C(F)(F)F)cc3F)(C(F)(F)F)C4)C[C@H]2N1 [Example 44, (4aR,8aS)-6-(6-((2-fluoro-4-(trifluoromethyl)benzyl)oxy)-6-(trifluoromethyl)-2-azaspiro[3.3]heptane-2-carbonyl)hexahydro-2H-pyrido[4,3-b][1,4]oxazin-3(4H)-one]
1590 | CC(C)Oc1ccc(N2CC3(CN(C(=O)N4CC[C@@H]5OCC(=O)N[C@@H]5C4)C3)C2)cc1 [Example 60, (4aR,8aS)-6-(6-(4-isopropoxyphenyl)-2,6-diazaspiro[3.3]heptane-2-carbonyl)hexahydro-2H-pyrido[4,3-b][1,4]oxazin-3(4H)-one]
0.17 | O=C1CO[C@H]2CCN(C(=O)N3CC4(CC(Cc5ccc(F)cc5F)C4)C3)C[C@H]2N1 [Example 51, (4aR,8aS)-6-(6-(2,4-difluorobenzyl)-2-azaspiro[3.3]heptane-2-carbonyl)hexahdyro-2H-pyrido[4,3-b][1,4]oxazin-3(4H)-one]
0.03 | COc1cc(C(F)(F)F)ccc1CC1CC2(C1)CN(C(=O)N1CC[C@@H]3OCC(=O)N[C@@H]3C1)C2 [Example 52, (4aR,8aS)-6-(6-(2-methoxy-4-(trifluoromethyl)benzyl)-2-azaspiro[3.3]heptane-2-carbonyl)hexahydro-2H-pyrido[4,3-b][1,4]oxazin-3(4H)-one]
70.7 | O=C1CO[C@H]2CCN(C(=O)N3CCC4(C3)CN(c3cccc(C(F)(F)F)c3)C4)C[C@H]2N1 [Example 58, (4aR,8aS)-6-(2-(3-(trifluoromethyl)phenyl)-2,6-diazaspiro[3.4]octane-6-carbonyl)hexahydro-2H-pyrido[4,3-b][1,4]oxazin-3(4H)-one]
15.9 | O=C1CO[C@H]2CCN(C(=O)N3CCC4(C3)CN(c3ccc(Cl)c(C(F)(F)F)c3)C4)C[C@H]2N1 [Example 63, (4aR,8aS)-6-(2-(4-chloro-3-(trifluoromethyl)phenyl)-2,6-diazaspiro[3.4]octane-6-carbonyl)hexahydro-2H-pyrido[4,3-b][1,4]oxazin-3(4H)-one]
